# According to patent US20050227300A1, “Use of alpha-tubulin acetylation levels as a biomarker for protein deacetylase inhibitors” (priority 2001, published 2005):
# Columns and labels:
# [1] = test system: Tubulin Acetylation in HCT 116 Tumor Xenografts; assay: Tubulin acetylation in HCT 116 tumor xenografts in mice (western blotting with anti-acetylated alpha-tubulin antibody); type: in vivo
# Experimental: In order to correlate the antitumor activity of HDAC-2 with its induction of tubulin acetylation, levels of acetylated tubulin are examined in tumors of athymic mice bearing HCT 116 treated with HDAC-2 and control mice. Mice are dosed with 100 mg/kg of HDAC-2 and the tumors are dissected 3, 6, 16 or 24 h post dose. Tubulin acetylation levels are detected with antibodies specific for acetylated alpha-tubulin. […] Tumors are dissected 1 hour post dose and levels of acetylated tubulin determined by western blotting with the anti-acetylated alpha-tubulin antibody.
# [2] = test system: HCT 166 cells; assay: 2-D gel electrophoresis / western blotting with anti-acetyllysine of extracts of HDAC-2 treated cells; type: cell-based, human; conditions: HDAC-2 treated vs control, IEF pH 3-10
# From the text: For Identifying the protein, cell extracts of HDAC-2 treated and control HCT 166 cells are separated by 2-D gel electrophoresis with a broad range IEF gel (pH 3-10) in the first dimension and analyzed by western blotting with anti-acetyllysine.
# One set of gels is used for immunoblotting with anti-acetyllysine antibody detection and a second set is reserved for staining of the gel with Coomassie blue.
# [3] = test system: alpha-tubulin acetylation; assay: Time course of HDAC-2 induced tubulin acetylation in cell lines; type: cell-based; conditions: 200 nM
# From the text: Time Course of HDAC-2 Induced Tubulin Acetylation in Cell Lines
# [4] = athymic mice bearing HCT 116, 100 mg/kg, intravenous
compound,measurement,setting,value
"O=C(/C=C/c1ccc(CN(CCO)CCc2c[nH]c3ccccc23)cc1)NO [HDAC-2, N-hydroxy-3-[4-[[(2-hydroxyethyl)[2-(1H-indol-3-yl)ethyl]-amino]methyl]phenyl]-2E-2-propenamide]",induction of tubulin acetylation in the tumors,"[1]; HCT 116 tumor bearing mice, i.v. dose as low as 2 mg/kg, 1 hour post dose",able to induce tubulin acetylation
same,Proliferating Cell Nuclear Antigen (PCNA) levels in tumors,[1]; [4],essentially invariant
same,duration of increase in acetylated alpha-tubulin in tumors,[1]; [4],at least 8 h
same,time to consistent increases in acetylated alpha-tubulin in tumors,[1]; [4],≤ 30 min
same,"anti-acetyllysine immunostaining of cell extracts (histone bands and non-histone spot around pH 4.5, later identified as acetylated alpha-tubulin)",[2],prominently stained bands of low molecular weight corresponding to histones are visible at the lower right corner as well as a non-histone spot around pH 4.5
same,time of maximal alpha-tubulin acetylation,[3],4 h
same,"acetylation of alpha-tubulin reached, relative to the maximal acetylation (at 4 hours)",[3]; 30 min after addition,more than 30%
same,state of cells at last time point,[3]; 18 hours,cells are visibly damaged
